Test results from ChEMBL document CHEMBL6103553, “Small molecule inhibitors targeting PD-L1, CTLA4, VISTA, TIM-3, and LAG3 for cancer immunotherapy (2020-2024)” (Eur J Med Chem, 2025).
pIC50, pKd: −log10 of the molar value.

Experiments:
[1] = Inhibition of his-tagged CTLA-4/CD80 (unknown origin) protein-protein interaction by TR-FRET assay; design: species or system Homo sapiens
[2] = Inhibition of CTLA-4/CD80 (unknown origin) protein-protein interaction; design: species or system Homo sapiens
[3] = biological target: Programmed cell death protein 1/Programmed cell death 1 ligand 1 (Homo sapiens, UniProt Q9NZQ7); assay: Inhibition of human PD-1/PD-L1 incubated for 1 hr by HTRF assay; format: protein-complex assay
[4] = biological target: T1, V-type immunoglobulin domain-containing suppressor of T-cell activation (Homo sapiens, UniProt Q9H7M9); assay: Inhibition of N-terminal His-tagged human recombinant VISTA (1 to 161 residues) transfected in human Expi293 cells incubated for 60 mins by ELISA analysis; format: cell-based
T1 sequence (Q9H7M9 whole entry): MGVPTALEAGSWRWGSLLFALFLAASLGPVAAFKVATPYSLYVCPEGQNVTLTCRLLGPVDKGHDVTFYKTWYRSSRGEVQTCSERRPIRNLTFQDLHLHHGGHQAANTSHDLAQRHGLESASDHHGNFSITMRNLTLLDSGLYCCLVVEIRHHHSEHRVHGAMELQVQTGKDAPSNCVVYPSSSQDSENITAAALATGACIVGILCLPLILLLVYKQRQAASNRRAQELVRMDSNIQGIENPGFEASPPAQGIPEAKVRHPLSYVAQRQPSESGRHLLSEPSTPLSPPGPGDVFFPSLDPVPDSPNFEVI

[5] = biological target: T1, V-type immunoglobulin domain-containing suppressor of T-cell activation; assay: biochemical
Description: Binding affinity to N-terminal His-tagged human recombinant VISTA (1 to 161 residues) transfected in human Expi293 cells assessed as dissociation constant incubated for 60 mins by SPR assay

[6] = Inhibition of VISTA/VSIG-3 (unknown origin) protein-protein interaction by TR-FRET assay
[7] = Induction of PD-L1 degradation in human NCI-H460 cells transfected with siRNA ABCB1 incubated for 2 hrs by Western blot analysis; conditions: NCI-H460, 2 h
[8] = Inhibition of LAG-3/MHC-II (unknown origin) interaction by TR-FRET assay; design: species or system Homo sapiens
[9] = Inhibition of PD-L1 (unknown origin) by FRET assay; design: species or system Homo sapiens
[10] = Binding affinity to PD-L1 (unknown origin) assessed as dissociation constant; design: species or system Homo sapiens
[11] = Inhibition of human PD-L1 by HTRF assay
Tubulin = assay: Inhibition of tubulin polymerization (unknown origin); format: protein-complex assay, Homo sapiens
[12] = Stability in mouse plasma assessed as half life; format: ADME, cell-free
MC-38 = assay: Antitumor activity against mouse MC-38 cells implanted in C57BL/6N mouse assessed as reduction in tumor volume at 10 mg/kg, ip in presence of PD-L1 and measured after 10 days relative to control; format: functional; design: scale not given: the % may be the effect or the level left; conditions: time 10 day
[13] = Inhibition of PD-L1 (unknown origin) by HTRF assay; design: species or system Homo sapiens

Programmed cell death protein 1/Programmed cell death 1 ligand 1, sequence (Q15116 whole entry, the tested form may be a part): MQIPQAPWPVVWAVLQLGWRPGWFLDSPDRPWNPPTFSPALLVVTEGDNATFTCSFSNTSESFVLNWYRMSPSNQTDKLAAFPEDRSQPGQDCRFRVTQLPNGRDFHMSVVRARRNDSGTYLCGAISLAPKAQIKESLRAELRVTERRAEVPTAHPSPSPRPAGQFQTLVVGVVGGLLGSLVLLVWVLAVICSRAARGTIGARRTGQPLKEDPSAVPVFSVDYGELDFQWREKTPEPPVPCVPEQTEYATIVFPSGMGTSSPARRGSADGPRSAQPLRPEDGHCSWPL
Programmed cell death protein 1/Programmed cell death 1 ligand 1, sequence (Q9NZQ7 whole entry, the tested form may be a part): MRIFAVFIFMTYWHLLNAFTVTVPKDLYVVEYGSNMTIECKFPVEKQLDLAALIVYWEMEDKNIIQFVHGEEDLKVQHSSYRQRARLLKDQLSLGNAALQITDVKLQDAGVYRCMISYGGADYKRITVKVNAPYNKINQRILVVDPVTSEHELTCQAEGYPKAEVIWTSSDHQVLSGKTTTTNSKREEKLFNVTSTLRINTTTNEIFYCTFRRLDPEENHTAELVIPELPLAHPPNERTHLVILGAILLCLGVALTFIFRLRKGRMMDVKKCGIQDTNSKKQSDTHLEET

Structure (SMILES): Clc1ccc(C2=NN(c3ccccc3)C(c3ccco3)C2)cc1 (centres undefined)
- pIC50 [1]: 6.00

Structure (SMILES): COc1ccccc1C1CN(c2ccccc2)N=C1c1cccs1 (centres undefined)
- pIC50 [2]: 5.72

Structure (SMILES): Cc1nc(C)c(C(=O)NNC(=O)Cc2ccccc2)cc1C(=O)NNC(=O)Cc1ccccc1
- pIC50 [3]: 8.96

Structure (SMILES): COc1ccc(-c2nc(N)nc(-c3cc(C)ccc3O)c2Cl)cc1
- pIC50 [3]: 8.61

Structure (SMILES): CN(C)c1n/c(=N/Cc2cccs2)ss1
- pIC50 [4]: 5.19

Structure (SMILES): CN(C)c1n/c(=N/Cc2ccco2)ss1
- pKd [5]: 5.21
- pIC50 [6]: 5.01
- pIC50 [4]: 5.35

Structure (SMILES): C[C@@]1(C(=O)O)CC[C@]2(C)CC[C@]3(C)C4=CC(=O)c5c(cc(O)c(O)c5C=O)[C@]4(C)CC[C@@]3(C)[C@@H]2C1
- DC50 [7]: < 5000 nM

Structure (SMILES): Clc1ccc(C2CN(c3ccccc3)N=C2c2ccco2)cc1 (centres undefined)
- pIC50 [1]: 5.39

Structure (SMILES): Cc1cc(C(=O)COc2ccc(NC(=O)c3ccco3)cc2)c(C)n1-c1ccccc1
- pIC50 [8]: 5.08

Structure (SMILES): CC(=O)Nc1ccc(OCC(=O)c2cc(C)n(C(C)C)c2C)cc1
- pIC50 [8]: < 4.30

Structure (SMILES): Cc1cc(C(=O)COc2ccc(NC(=O)c3ccco3)cc2)c(C)n1Cc1ccccc1
- pIC50 [8]: 5.38

Structure (SMILES): Cc1c(-c2ccccc2)ccc2nc(-c3ccc(CNCCO)cc3)[nH]c12
- pIC50 [4]: 5.96

Structure (SMILES): Cc1cc(O)n(-c2ccccc2)n1
- pIC50 [9]: 7.04
- pKd [10]: 7.01

Structure (SMILES): O=C(CSc1ccccc1Cl)N1N=C(c2cccs2)CC1c1ccco1 (centres undefined)
- pIC50 [2]: 5.89

Structure (SMILES): Oc1cc(-c2cccc(C(F)(F)F)c2)nn1-c1ccccn1
- pIC50 [9]: 5.96
- pKd [10]: 5.92

Structure (SMILES): Clc1ccc(C2=NN(Cc3ccccc3)CC2c2ccccc2)cc1 (centres undefined)
- pIC50 [2]: 6.01

Structure (SMILES): COc1ccc(/C=C\c2cc(OC)c(OC)c(OC)c2)cc1OCc1ccc(CC=O)cc1
- pIC50 [11]: 7.31
- pIC50 (Tubulin): 4.79

Structure (SMILES): N=c1[nH]c2c3c(c4[nH]c(=N)[nH]c4c2[nH]1)[C@@H](CNC(=O)c1cc(Br)c(Br)[nH]1)[C@@H]3CNC(=O)c1cc(Br)c(Br)[nH]1
- DC50 [7]: < 5000 nM

Structure (SMILES): O=[N+]([O-])c1cccc(/C=N/OCc2coc(-c3cccc(F)c3)n2)c1
- pIC50 [1]: 5.29

Structure (SMILES): Cc1c(COc2ccc(CN3CCCCC3C(=O)NCCOCCNC(=O)CCCCCn3cc(CCCC(=O)NCCCC[C@@H]4NC(=O)[C@@H](Cc5ccc(O)cc5)NC(=O)[C@H](CC(=O)O)NC(=O)CNC(=O)[C@H](CCCNC(=N)N)NC4=O)nn3)cc2Br)cccc1-c1ccccc1 (some centres undefined)
- DC50 [7]: < 100 nM

Structure (SMILES): Oc1cc(-c2ccc(Cl)cc2Cl)nn1-c1ccccn1
- pIC50 [9]: 7.11
- pKd [10]: 6.96

Structure (SMILES): Cc1cccc2nc(-c3cccc(CNCCO)c3)[nH]c12
- pIC50 [4]: 3.59

Structure (SMILES): COc1ccc(-c2nc(CO/N=C/c3ccccc3Cl)co2)cc1
- pIC50 [2]: 5.82

Structure (SMILES): Cc1c(COc2ccc(CN3CCCCC3C(=O)NCCCn3cc(CCCC(=O)NCCCC[C@@H]4NC(=O)[C@@H](Cc5ccc(O)cc5)NC(=O)[C@H](CC(=O)O)NC(=O)CNC(=O)[C@H](CCCNC(=N)N)NC4=O)nn3)cc2Br)cccc1-c1ccccc1 (some centres undefined)
- DC50 [7]: < 50000 nM

Structure (SMILES): CCOC(=O)C1=C(COCCS)NC(C)=C(C(=O)OC)C1c1ccccc1Cl (centres undefined)
- DC50 [7]: < 10000 nM

Structure (SMILES): Cc1c(COc2ccc(CN3CCCCC3C(=O)NCCOCCOCCOCCNC(=O)CCCCCn3cc(CCCC(=O)NCCCC[C@@H]4NC(=O)[C@@H](Cc5ccc(O)cc5)NC(=O)[C@H](CC(=O)O)NC(=O)CNC(=O)[C@H](CCCNC(=N)N)NC4=O)nn3)cc2Br)cccc1-c1ccccc1 (some centres undefined)
- DC50 [7]: < 100 nM

Structure (SMILES): C/C(=N\OCC(=O)Nc1ccc(C)c(F)c1)c1nc(-c2ccccc2)[nH]c1C
- pIC50 [2]: 5.85

Structure (SMILES): Oc1cc(-c2ccc(C(F)(F)F)cc2)nn1-c1ccccn1
- half-life [12]: < 30 min
- pIC50 [9]: 6.84
- pKd [10]: 6.81

Structure (SMILES): CCCCCN(CCCCC)C(C)C(=O)c1cc(C)c2ccc3cc(C(C)C)ccc3c2c1 (centres undefined)
- Activity (MC-38): 93.6%
- pIC50 [3]: 7.02

Structure (SMILES): CCOC(=O)C(COC(=O)NCCSSCCNC(=O)O/N=C(\Nc1ccc(C)c(O)c1)c1nonc1N)NCc1cc(Cl)c(OCc2cccc(-c3ccccc3)c2Br)cc1OCc1ccnc(C#N)c1 (centres undefined)
- pIC50 [13]: > 7.00

Structure (SMILES): O=[N+]([O-])c1cccc(/C=N/OCc2csc(-c3ccccc3)n2)c1
- pIC50 [2]: 5.35

Structure (SMILES): COc1ccc2cc3[n+](cc2c1OC)CCc1cc2c(cc1-3)OCO2 [BERBERINE CHLORIDE]
- DC50 [7]: < 2000 nM

Structure (SMILES): Cc1ccc([C@@H]2O[C@H](CO)[C@@H](O)[C@H](O)[C@H]2O)cc1Cc1ccc(-c2ccc(F)cc2)s1 [CANAGLIFLOZIN ANHYDROUS]
- DC50 [7]: < 20000 nM

Structure (SMILES): CN(C)C(=N)NC(=N)N [METFORMIN]
- DC50 [7]: < 2000 nM

Structure (SMILES): O[C@@H](COc1cccc2ncccc12)CN1CCN([C@@H]2c3ccccc3[C@@H]3[C@H](c4ccccc42)C3(F)F)CC1 [ZOSUQUIDAR]
- DC50 [7]: < 10000 nM
